# Target: T1, BRM (Homo sapiens, UniProt P51531)
# T1 construct: In-Cell Western Screen of BRM Degradation in SW1573 Cells; endogenous in cells; host or cells: SW1573
# Assay: In-cell Western screen of BRM degradation in SW1573 cells (Dmax and DC50)
# Assay type: cell-based
# Details: BRM degradation, SW1573 cells; for DC50: read-out: DC50; for Dmax: read-out: Dmax (% degraded)
# In short: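 Near-infrared imaging on a LI-COR Odyssey (800 and 680 nm channels) quantifies BRM remaining in fixed SW1573 cells. Cells are dosed for 18-20 h at 0.1% final DMSO, and degradation is expressed as Dmax and DC50.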
# T1 sequence (P51531 whole entry): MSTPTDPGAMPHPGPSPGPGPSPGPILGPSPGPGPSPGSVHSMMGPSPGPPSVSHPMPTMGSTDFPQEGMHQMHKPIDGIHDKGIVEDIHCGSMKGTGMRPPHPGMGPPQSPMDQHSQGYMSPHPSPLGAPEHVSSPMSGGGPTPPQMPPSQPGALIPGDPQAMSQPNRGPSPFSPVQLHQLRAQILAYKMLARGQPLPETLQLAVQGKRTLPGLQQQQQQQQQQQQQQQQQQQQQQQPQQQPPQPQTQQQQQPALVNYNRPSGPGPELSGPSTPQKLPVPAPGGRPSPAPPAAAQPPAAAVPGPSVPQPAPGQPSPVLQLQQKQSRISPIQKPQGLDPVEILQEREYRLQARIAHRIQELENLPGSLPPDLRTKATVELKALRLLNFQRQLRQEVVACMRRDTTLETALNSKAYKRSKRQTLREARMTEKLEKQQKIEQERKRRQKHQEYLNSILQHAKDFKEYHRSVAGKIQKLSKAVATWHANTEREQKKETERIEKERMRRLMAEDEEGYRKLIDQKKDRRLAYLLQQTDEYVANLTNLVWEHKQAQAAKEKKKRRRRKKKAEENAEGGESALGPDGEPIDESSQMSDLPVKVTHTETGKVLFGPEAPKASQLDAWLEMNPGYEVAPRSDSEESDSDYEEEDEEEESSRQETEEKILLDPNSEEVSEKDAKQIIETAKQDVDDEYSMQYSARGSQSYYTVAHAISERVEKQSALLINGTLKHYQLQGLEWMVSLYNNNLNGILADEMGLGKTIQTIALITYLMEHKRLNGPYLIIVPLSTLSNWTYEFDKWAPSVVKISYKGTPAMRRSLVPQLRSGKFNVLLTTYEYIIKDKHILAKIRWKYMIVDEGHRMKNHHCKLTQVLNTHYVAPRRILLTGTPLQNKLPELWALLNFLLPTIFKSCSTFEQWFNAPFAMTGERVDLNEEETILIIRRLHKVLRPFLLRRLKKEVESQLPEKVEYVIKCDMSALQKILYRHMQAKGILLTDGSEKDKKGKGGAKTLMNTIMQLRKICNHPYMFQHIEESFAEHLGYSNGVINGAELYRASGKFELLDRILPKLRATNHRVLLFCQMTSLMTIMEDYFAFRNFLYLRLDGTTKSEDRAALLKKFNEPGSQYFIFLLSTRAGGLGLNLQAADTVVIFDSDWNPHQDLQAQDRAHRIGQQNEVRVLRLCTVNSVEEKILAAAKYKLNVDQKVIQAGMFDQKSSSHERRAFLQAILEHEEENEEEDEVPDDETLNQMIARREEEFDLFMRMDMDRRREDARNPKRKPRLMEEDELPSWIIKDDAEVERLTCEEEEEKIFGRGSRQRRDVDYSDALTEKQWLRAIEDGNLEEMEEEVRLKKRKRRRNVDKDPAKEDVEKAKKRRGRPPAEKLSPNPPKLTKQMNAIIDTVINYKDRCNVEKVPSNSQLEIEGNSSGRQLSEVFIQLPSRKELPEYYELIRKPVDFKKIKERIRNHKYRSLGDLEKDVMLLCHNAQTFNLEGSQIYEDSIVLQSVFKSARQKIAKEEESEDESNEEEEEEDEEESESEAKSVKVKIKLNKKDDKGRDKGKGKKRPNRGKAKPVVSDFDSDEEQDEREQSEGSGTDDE
Structure (SMILES),DC50 [nM],Dmax [%]
"Cc1ncsc1-c1ccc([C@H](CCC#N)NC(=O)[C@@H]2C[C@@H](O)CN2C(=O)[C@@H](c2cc(N3CCC(CN4CCC(O[C@H]5C[C@H](Oc6cc(N7C8CCC7CN(c7cc(-c9ccccc9O)nnc7N)C8)ccn6)C5)CC4)CC3)no2)C(C)C)cc1 [compound 672, (2S,4R)-1-((2R)-2-(3-(4-((4-((1r,3r)-3-((4-(3-(3-amino-6-(2-hydroxyphenyl)pyridazin-4-yl)-3,8-diazabicyclo[3.2.1]octan-8-yl)pyridin-2-yl)oxy)cyclobutoxy)piperidin-1-yl)methyl)piperidin-1-yl)isoxazol-5-yl)-3-methylbutanoyl)-N-((S)-3-cyano-1-(4-(4-methylthiazol-5-yl)phenyl)propyl)-4-hydroxypyrrolidine-2-carboxamide]",< 2.5,> 75
"Cc1ncsc1-c1ccc([C@@H](CCC#N)NC(=O)[C@@H]2C[C@@H](O)CN2C(=O)[C@@H](c2cc(N3CCC(CN4CCC(O[C@H]5C[C@H](Oc6cc(N7C8CCC7CN(c7cc(-c9ccccc9O)nnc7N)C8)ccn6)C5)CC4)CC3)no2)C(C)C)cc1 [compound 673, (2S,4R)-1-((2R)-2-(3-(4-((4-((1r,3r)-3-((4-(3-(3-amino-6-(2-hydroxyphenyl)pyridazin-4-yl)-3,8-diazabicyclo[3.2.1]octan-8-yl)pyridin-2-yl)oxy)cyclobutoxy)piperidin-1-yl)methyl)piperidin-1-yl)isoxazol-5-yl)-3-methylbutanoyl)-N-((R)-3-cyano-1-(4-(4-methylthiazol-5-yl)phenyl)propyl)-4-hydroxypyrrolidine-2-carboxamide]",10 to 30,50 to 75
"Cc1ncoc1-c1ccc([C@H](C)NC(=O)[C@@H]2C[C@@H](O)CN2C(=O)[C@@H](c2cc(N3CCC(CN4CCC(O[C@H]5C[C@H](Oc6cc(N7C8CCC7CN(c7cc(-c9ccccc9O)nnc7N)C8)ccn6)C5)CC4)CC3)no2)C(C)C)cc1 [compound 674, (2S,4R)-1-((2R)-2-(3-(4-((4-((1r,3r)-3-((4-(3-(3-amino-6-(2-hydroxyphenyl)pyridazin-4-yl)-3,8-diazabicyclo[3.2.1]octan-8-yl)pyridin-2-yl)oxy)cyclobutoxy)piperidin-1-yl)methyl)piperidin-1-yl)isoxazol-5-yl)-3-methylbutanoyl)-4-hydroxy-N-((S)-1-(4-(4-methyloxazol-5-yl)phenyl)ethyl)pyrrolidine-2-carboxamide]",< 2.5,> 75
"Cc1ncsc1-c1ccc([C@H](C)NC(=O)[C@@H]2C[C@@H](O)CN2C(=O)[C@@H](c2cc(N3CCC(CN4CCC(O[C@H]5C[C@H](Oc6cc(N7C8CCC7CN(c7cc(-c9ccccc9O)nnc7N)C8)ccn6)C5)CC4)CC3)no2)C(C)C)cn1 [compound 675, (2S,4R)-1-((2R)-2-(3-(4-((4-((1r,3r)-3-((4-(3-(3-amino-6-(2-hydroxyphenyl)pyridazin-4-yl)-3,8-diazabicyclo[3.2.1]octan-8-yl)pyridin-2-yl)oxy)cyclobutoxy)piperidin-1-yl)methyl)piperidin-1-yl)isoxazol-5-yl)-3-methylbutanoyl)-4-hydroxy-N-((S)-1-(6-(4-methylthiazol-5-yl)pyridin-3-yl)ethyl)pyrrolidine-2-carboxamide]",< 2.5,> 75
"Cc1ncsc1-c1ccc([C@H](C)NC(=O)[C@@H]2C[C@@H](O)CN2C(=O)[C@H](c2cc(N3CCC(C#CCN4CCC(Oc5cc(N6C7CCC6CN(c6cc(-c8ccccc8O)nnc6N)C7)ccn5)CC4)CC3)no2)C(C)C)cc1 [compound 676, (2S,4R)-1-((2S)-2-(3-(4-(3-(4-((4-(3-(3-amino-6-(2-hydroxyphenyl)pyridazin-4-yl)-3,8-diazabicyclo[3.2.1]octan-8-yl)pyridin-2-yl)oxy)piperidin-1-yl)prop-1-yn-1-yl)piperidin-1-yl)isoxazol-5-yl)-3-methylbutanoyl)-4-hydroxy-N-((S)-1-(4-(4-methylthiazol-5-yl)phenyl)ethyl)pyrrolidine-2-carboxamide]",2.5 to 10,> 75
"Cc1ncsc1-c1ccc([C@H](C)NC(=O)[C@@H]2C[C@@H](O)CN2C(=O)[C@@H](c2cc(N3CCC(C#CCN4CCC(Oc5cc(N6C7CCC6CN(c6cc(-c8ccccc8O)nnc6N)C7)ccn5)CC4)CC3)no2)C(C)C)cc1 [compound 677, (2S,4R)-1-((2R)-2-(3-(4-(3-(4-((4-(3-(3-amino-6-(2-hydroxyphenyl)pyridazin-4-yl)-3,8-diazabicyclo[3.2.1]octan-8-yl)pyridin-2-yl)oxy)piperidin-1-yl)prop-1-yn-1-yl)piperidin-1-yl)isoxazol-5-yl)-3-methylbutanoyl)-4-hydroxy-N-((S)-1-(4-(4-methylthiazol-5-yl)phenyl)ethyl)pyrrolidine-2-carboxamide]",< 2.5,> 75
"C#Cc1ccc([C@H](C)NC(=O)[C@@H]2C[C@@H](O)CN2C(=O)[C@@H](c2cc(N3CCC(CN4CCC(O[C@H]5C[C@H](Oc6cc(N7C8CCC7CN(c7cc(-c9ccccc9O)nnc7N)C8)ccn6)C5)CC4)CC3)no2)C(C)C)cc1 [compound 678, (2S,4R)-1-((2R)-2-(3-(4-((4-((1r,3r)-3-((4-(3-(3-amino-6-(2-hydroxyphenyl)pyridazin-4-yl)-3,8-diazabicyclo[3.2.1]octan-8-yl)pyridin-2-yl)oxy)cyclobutoxy)piperidin-1-yl)methyl)piperidin-1-yl)isoxazol-5-yl)-3-methylbutanoyl)-N-((S)-1-(4-ethynylphenyl)ethyl)-4-hydroxypyrrolidine-2-carboxamide]",< 2.5,> 75
"Cc1ncsc1-c1ccc([C@H](C)NC(=O)[C@@H]2C[C@@H](O)CN2C(=O)[C@@H](c2cc(N3CCC(CN4CCC(O[C@H]5C[C@H](Oc6cc(N7C8CCC7CN(c7cc(-c9ccccc9O)nnc7N)C8)ccn6)C5)CC4)CC3)no2)C(C)C)c(F)c1F [compound 679, (2S,4R)-1-((2R)-2-(3-(4-((4-((1r,3r)-3-((4-(3-(3-amino-6-(2-hydroxyphenyl)pyridazin-4-yl)-3,8-diazabicyclo[3.2.1]octan-8-yl)pyridin-2-yl)oxy)cyclobutoxy)piperidin-1-yl)methyl)piperidin-1-yl)isoxazol-5-yl)-3-methylbutanoyl)-N-((S)-1-(2,3-difluoro-4-(4-methylthiazol-5-yl)phenyl)ethyl)-4-hydroxypyrrolidine-2-carboxamide]",< 2.5,> 75
"Cc1ncsc1-c1cc(F)c([C@H](C)NC(=O)[C@@H]2C[C@@H](O)CN2C(=O)[C@H](c2cc(N3CCC(CN4CCC(O[C@H]5C[C@H](Oc6cc(N7C8CCC7CN(c7cc(-c9ccccc9O)nnc7N)C8)ccn6)C5)CC4)CC3)no2)C(C)C)cc1F [compound 680, (2S,4R)-1-((2S)-2-(3-(4-((4-((1r,3r)-3-((4-(3-(3-amino-6-(2-hydroxyphenyl)pyridazin-4-yl)-3,8-diazabicyclo[3.2.1]octan-8-yl)pyridin-2-yl)oxy)cyclobutoxy)piperidin-1-yl)methyl)piperidin-1-yl)isoxazol-5-yl)-3-methylbutanoyl)-N-((S)-1-(2,5-difluoro-4-(4-methylthiazol-5-yl)phenyl)ethyl)-4-hydroxypyrrolidine-2-carboxamide]",> 30,
"Cc1ncsc1-c1cc(F)c([C@H](C)NC(=O)[C@@H]2C[C@@H](O)CN2C(=O)[C@@H](c2cc(N3CCC(CN4CCC(O[C@H]5C[C@H](Oc6cc(N7C8CCC7CN(c7cc(-c9ccccc9O)nnc7N)C8)ccn6)C5)CC4)CC3)no2)C(C)C)cc1F [compound 681, (2S,4R)-1-((2R)-2-(3-(4-((4-((1r,3r)-3-((4-(3-(3-amino-6-(2-hydroxyphenyl)pyridazin-4-yl)-3,8-diazabicyclo[3.2.1]octan-8-yl)pyridin-2-yl)oxy)cyclobutoxy)piperidin-1-yl)methyl)piperidin-1-yl)isoxazol-5-yl)-3-methylbutanoyl)-N-((S)-1-(2,5-difluoro-4-(4-methylthiazol-5-yl)phenyl)ethyl)-4-hydroxypyrrolidine-2-carboxamide]",< 2.5,> 75
"Cc1ncsc1-c1ccc([C@H](C)NC(=O)[C@@H]2C[C@@H](O)CN2C(=O)[C@H](c2cc(N3CCC(F)(CN4CCC(O[C@H]5C[C@H](Oc6cc(N7C8CCC7CN(c7cc(-c9ccccc9O)nnc7N)C8)ccn6)C5)CC4)CC3)no2)C(C)C)cc1 [compound 682, (2S,4R)-1-((2S)-2-(3-(4-((4-((1r,3r)-3-((4-(3-(3-amino-6-(2-hydroxyphenyl)pyridazin-4-yl)-3,8-diazabicyclo[3.2.1]octan-8-yl)pyridin-2-yl)oxy)cyclobutoxy)piperidin-1-yl)methyl)-4-fluoropiperidin-1-yl)isoxazol-5-yl)-3-methylbutanoyl)-4-hydroxy-N-((S)-1-(4-(4-methylthiazol-5-yl)phenyl)ethyl)pyrrolidine-2-carboxamide]",2.5 to 10,> 75
"Cc1ncsc1-c1ccc([C@H](C)NC(=O)[C@@H]2C[C@@H](O)CN2C(=O)[C@@H](c2cc(N3CCC(F)(CN4CCC(O[C@H]5C[C@H](Oc6cc(N7C8CCC7CN(c7cc(-c9ccccc9O)nnc7N)C8)ccn6)C5)CC4)CC3)no2)C(C)C)cc1 [compound 683, (2S,4R)-1-((2R)-2-(3-(4-((4-((1r,3r)-3-((4-(3-(3-amino-6-(2-hydroxyphenyl)pyridazin-4-yl)-3,8-diazabicyclo[3.2.1]octan-8-yl)pyridin-2-yl)oxy)cyclobutoxy)piperidin-1-yl)methyl)-4-fluoropiperidin-1-yl)isoxazol-5-yl)-3-methylbutanoyl)-4-hydroxy-N-((S)-1-(4-(4-methylthiazol-5-yl)phenyl)ethyl)pyrrolidine-2-carboxamide]",< 2.5,> 75

# — patent publication US12539292B2, “BRM targeting compounds and associated methods of use” (Arvinas Operations, Inc., priority 2018, dated 2026)
